The source of these data is ChEMBL document CHEMBL5532675, “Discovery of 4-Ethoxy-6-chloro-5-azaindazoles as Novel PDE4 Inhibitors for the Treatment of Alcohol Use Disorder and Alcoholic Liver Diseases” (J Med Chem, 2024).

Test [1] has as its target T1, 3',5'-cyclic-AMP phosphodiesterase 4D (Homo sapiens, UniProt Q08499). In words: Inhibition of PDE4D7 (unknown origin) using FAM-cyclic-3',5'-AMP as substrate at 1 microM incubated for 1 hrs by fluorescence polarization based IMAP assay relative to control. (Polarisation of emitted light reports the rotation of a fluorescent probe.)
Test [2] has as its target T1, 3',5'-cyclic-AMP phosphodiesterase 4D. In words: Inhibition of PDE4D7 (unknown origin) using FAM-cyclic-3',5'-AMP as substrate at 100 nM incubated for 1 hrs by fluorescence polarization based IMAP assay relative to control.
For test [3] the target is unchanged. The test can be described thus: Inhibition of PDE4D7 (unknown origin) using FAM-cyclic-3',5'-AMP as substrate incubated for 1 hrs by fluorescence polarization based IMAP assay.
For test [4] the target is unchanged. In words: Inhibition of PDE4D7 (unknown origin) using FAM-cyclic-3',5'-AMP as substrate at 10 nM incubated for 1 hrs by fluorescence polarization based IMAP assay relative to control.

SMILES strings stand for the structures.

T1 sequence (Q08499 whole entry): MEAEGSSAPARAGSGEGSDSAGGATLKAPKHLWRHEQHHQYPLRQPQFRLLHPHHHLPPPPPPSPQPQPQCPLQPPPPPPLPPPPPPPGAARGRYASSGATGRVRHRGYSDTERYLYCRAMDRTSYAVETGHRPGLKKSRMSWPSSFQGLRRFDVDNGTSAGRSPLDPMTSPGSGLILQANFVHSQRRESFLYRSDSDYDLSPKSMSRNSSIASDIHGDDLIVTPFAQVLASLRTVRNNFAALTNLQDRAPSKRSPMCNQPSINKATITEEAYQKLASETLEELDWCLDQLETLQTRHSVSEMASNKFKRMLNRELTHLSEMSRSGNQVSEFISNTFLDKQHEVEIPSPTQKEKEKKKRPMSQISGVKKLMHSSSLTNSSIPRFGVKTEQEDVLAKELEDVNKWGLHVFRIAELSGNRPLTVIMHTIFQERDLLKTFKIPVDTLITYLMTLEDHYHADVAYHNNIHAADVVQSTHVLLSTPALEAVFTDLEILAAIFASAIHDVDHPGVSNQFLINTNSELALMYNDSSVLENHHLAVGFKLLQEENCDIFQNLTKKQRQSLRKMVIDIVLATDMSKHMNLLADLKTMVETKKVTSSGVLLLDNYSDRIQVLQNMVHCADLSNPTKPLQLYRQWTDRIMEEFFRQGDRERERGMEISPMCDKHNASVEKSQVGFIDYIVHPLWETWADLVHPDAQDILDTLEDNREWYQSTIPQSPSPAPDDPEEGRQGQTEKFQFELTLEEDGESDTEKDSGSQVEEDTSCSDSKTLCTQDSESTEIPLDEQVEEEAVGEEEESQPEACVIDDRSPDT

For the compound `CCOc1nc(C(C)=O)cc2c1cnn2C1CCOCC1`, the inhibition turned out to be 9% in test [1] and 6% in test [2].

For `CCOc1nc(C#N)cc2c1cnn2C1CCOCC1`, 230 nM corresponded to half-maximal inhibition in test [3] (IC50). The values for the inhibition in test [1] and in test [2] were 82% and 32%, respectively.

Consider `CCOc1nc(Cl)cc2nn(CCCC(=O)O)cc12`, for which the inhibition in test [4] is 6%; in test [2] it was 8%.

`CCOc1nc(Cl)cc2c1cnn2Cc1cccnc1`: the inhibition in test [2] turned out to be 5%.

Regarding `CCOc1nc(Cl)cc2c1cnn2CC(=O)O`, the inhibition in test [4] and in test [2] was 3% throughout.

Compound `CCOc1nc(Cl)cc2nn(CCC(=O)NO)cc12` registered an IC50 in test [3] of 38.7 nM. In addition, the inhibition was found to be 25% in test [4] and 66% in test [2].

Compound `CCOc1nc(Cl)cc2nn(-c3cccc(OC)c3)cc12` registered an inhibition in test [2] of 8%.

Take `Clc1cc2c(cnn2C2CCOCC2)c(OC2CCCC2)n1`: the values for the inhibition in test [1] and in test [2] were 10% and 5%, respectively.

For `CCOc1nc(Cl)cc2c1cnn2CCO`, the inhibition in test [4] came to 3%; in test [2], 4%.

Turning to `CCOc1nc(Cl)cc2c1c(-c1cccc(OC)c1)nn2CCCC(=O)O`, the inhibition in test [4] came out at 3%; in test [2], 6%.

Turning to `CCOc1nc(Cl)cc2c1cnn2CCCO`, the values for the inhibition in test [4] and in test [2] were 5% and 8%, respectively.

In the case of `CCOc1nc(Cl)cc2c1c(-c1ccncc1)nn2CCCC(=O)O`, the inhibition in test [4] came out at 5%; in test [2], 24%.

For `CCNc1nc(Cl)cc2c1cnn2C1CCCC1`, the inhibition was 28% in test [1] and 5% in test [2].

For the compound `CCOc1nc(Cl)cc2c1c(C1CCCCC1)nn2CCCC(=O)O`, the inhibition in test [4] came out at 6%; in test [2], 11%.

As for `CC(C)Oc1nc(Cl)cc2c1cnn2C1CCOCC1`, the inhibition in test [1] turned out to be 30%; in test [2], 12%.

As to `CCOc1nc(Cl)cc2nn(CCCCO)cc12`, the inhibition in test [4] is 4%; in test [2] it was 3%.

`CCOc1nc(Cl)cc2c1cnn2-c1ccc(OC)cc1` returned an inhibition in test [2] of 5%.

`CCOc1nc(Cl)cc2c1cnn2CCCC(=O)NO`: the inhibition in test [4] was 5%; in test [2], 19%.

In test [2], `CCOc1nc(Cl)cc2c1cnn2CC1CCOC1` (stereo not given) came in with an inhibition of 9%.

Turning to `CCOc1nc(Cl)cc2c1c(-c1ccc(OC)cc1)nn2CCCC(=O)O`, the inhibition in test [4] amounted to 7%; in test [2] it was 16%.

On to `CCOc1nc(Cl)cc2c1cnn2CC(=O)NC`, for which the inhibition in test [4] and in test [2] was 4% in each case.

Take `CCOc1nc(C)cc2c1cnn2C1CCOCC1`: in test [2], the inhibition came to 5%.

Consider `CCOc1nc(Cl)cc2c1c(Nc1ccccc1)nn2CCCC(=O)O`, for which the inhibition came to 7% in test [4] and 9% in test [2].

`CCOc1nc(Cl)cc2c1cnn2-c1cccc(OC)c1`: in test [2], the inhibition is 7%.

Consider `CCOc1nc(Cl)cc2c1cnn2CCC(=O)O`, for which the inhibition in test [4] was 8%; in test [2], 19%.

As to `CCOc1nc(Cl)cc2c1c(C(F)(F)F)nn2CCCC(=O)O`, the inhibition is 23% in test [4] and 53% in test [2].

For `CCOc1nc(Cl)cc2c1cnn2CC(=O)NOC`, the inhibition in test [4] was found to be 4%; in test [2], 6%.

In the case of `CCCOc1nc(Cl)cc2c1cnn2C1CCOCC1`, the inhibition in test [1] came to 5%; in test [2], 2%.

Consider `Clc1cc2c(cnn2C2CCOCC2)c(OC2CC2)n1`, for which the inhibition in test [1] was determined as 8%; in test [2], 4%.

For `CCOc1nc(Cl)cc2c1cnn2CCCCO`, the figures for the inhibition in test [4] and in test [2] were 5% and 6%, respectively.

`CCOc1nc(Cl)cc2c1c(C1CC1)nn2CCCC(=O)O`: the inhibition is 8% in test [4] and 13% in test [2].

`CCOc1nc(Cl)cc2c1cnn2CC(=O)N(C)O`: the inhibition in test [4] was determined as 5%; in test [2], 8%.

On to `CCOc1nc(Cl)cc2c1c(NCc1ccccc1)nn2CCCC(=O)O`, for which the inhibition in test [4] is 4%; in test [2], 18%.

In the case of `CCOc1nc(Cl)cc2c1cnn2CC(N)=O`, the inhibition in test [4] and in test [2] was 3% each time.

Turning to `CCOc1nc(-c2cccs2)cc2c1cnn2C1CCOCC1`, the inhibition in test [1] came out at 23%; in test [2], 4%.

For `CCOc1nc(Cl)cc2nn(CC(=O)O)cc12`, the inhibition in test [4] stood at 5%; in test [2], 7%.

In test [2], `CCOc1nc(Cl)cc2c1cnn2C(C)c1ccc(C(F)(F)F)cc1` (stereo not given) returned an inhibition of 14%.

Take `CCOc1nc(Cl)cc2c1cnn2CC#N`: the inhibition in test [4] turned out to be 3%; in test [2], 5%.

Take `CCOc1nc(Cl)cc2c1c(-c1cccnc1)nn2CCCC(=O)O`: the inhibition in test [4] was 4%; in test [2], 9%.

Regarding `CCOc1nc(C(N)=O)cc2c1cnn2C1CCOCC1`, the inhibition is 12% in test [1] and 6% in test [2].

As for `CCOc1nc(Cl)cc2c1cnn2CC1CCCO1` (stereo not given), the inhibition in test [2] is 4%.

Regarding `FC(F)(F)COc1nc(Cl)cc2c1cnn2C1CCOCC1`, the inhibition in test [1] turned out to be 35%; in test [2] it was 16%.

In the case of `CCOc1nc(Cl)cc2nn(CCO)cc12`, the inhibition in test [4] worked out at 6%; in test [2] it was 5%.

In the case of `CCOc1nc(Cl)cc2nn(CC3CCCO3)cc12` (stereo not given), the inhibition in test [2] came out at 10%.

For `CCOc1nc(Cl)cc2c1c(C)nn2CCCC(=O)O`, the inhibition in test [4] is 6%; in test [2] it was 11%.

Take `CNc1nc(Cl)cc2c1cnn2C1CCOCC1`: the inhibition in test [1] and in test [2] was 0% each time.

For `CCOc1nc(Cl)cc2nn(C3CCOCC3)cc12`, the inhibition in test [2] turned out to be 35%.

Take `CCOc1nc(-c2ccccc2)cc2c1cnn2C1CCOCC1`: the inhibition in test [1] was determined as 32%; in test [2] it was 14%.

Regarding `COc1nc(Cl)cc2c1cnn2C1CCOCC1`, the inhibition is 75% in test [1] and 35% in test [2].

With `CCOc1nc(Cl)cc2nn(CCCC(=O)NO)cc12`, the IC50 in test [3] came to 51.7 nM. In addition, the inhibition amounted to 18% in test [4] and 63% in test [2].

For the compound `CCOc1nc(Cl)cc2c1cnn2CCC(=O)NO`, the inhibition in test [4] was 9%; in test [2], 18%.

As for `CCOc1nc(Cl)cc2c1c(CC)nn2CCCC(=O)O`, the inhibition in test [4] turned out to be 15%; in test [2], 48%.

Regarding `CNc1nc(Cl)cc2c1cnn2C1CCCC1`, the figures for the inhibition in test [1] and in test [2] were 59% and 15%, respectively.

Regarding `CCOc1nc(Cl)cc2c1c(NCC(C)C)nn2CCCC(=O)O`, the inhibition was found to be 6% in test [4] and 27% in test [2].

For the compound `CCOc1nc(Cl)cc2c1c(/C=C/c1ccc(OC)cc1)nn2CCCC(=O)O`, the inhibition in test [4] was 2%; in test [2], 5%.

For `CCOc1nccc2c1cnn2C1CCOCC1`, in test [2], the inhibition was 1%.

Regarding `CCOc1nc(Cl)cc2c1cnn2C1CCSCC1`, the inhibition in test [2] is 5%.

For `CCOc1nc(-c2ccsc2)cc2c1cnn2C1CCOCC1`, the inhibition in test [1] is 4%; in test [2], 3%.

Compound `CNc1nc(Cl)cc2nn(C3CCOCC3)cc12` gave an inhibition in test [2] of 17%.

Turning to `CCOc1nc(Cl)cc2c1cnn2CC1(C)COC1`, in test [2], the inhibition worked out at 7%.

As for `CCOc1nc(Cl)cc2c1cnn2C1CCS(=O)(=O)CC1`, the inhibition in test [2] was 3%.

A word on the inhibition: it is the relative decrease from the control value, in per cent. A high value points to a strong effect. A word on the IC50: it is the concentration at which inhibition is half-maximal.
